Experimental data from patent publication EP1025226B1, “DNA ENCODING A HUMAN PROTON-GATED ION CHANNEL AND USES THEREOF” (McGill University, priority 1997, dated 1999).
Where two headings read alike, the source gives them in different places.

Key:
[1] = biological target: T1, human non-inactivating proton-gated ion channel hASIC3 (homomeric channels), SEQ ID No. 2 (Homo sapiens, UniProt Q9UHC3); assay: Two-electrode voltage clamp of proton-induced currents in Xenopus oocytes expressing the channel; assay type: cell-based; details: for remaining activity at 100 µM: 100 µM amiloride, currents activated by pH 4.0, mean +/- SEM (n= 17); for inhibition at 100 µM: co-application of 100 micro M amiloride with pH 4.0, biphasic response, hASIC3 in Xenopus oocytes
T1 sequence (Q9UHC3 1-531): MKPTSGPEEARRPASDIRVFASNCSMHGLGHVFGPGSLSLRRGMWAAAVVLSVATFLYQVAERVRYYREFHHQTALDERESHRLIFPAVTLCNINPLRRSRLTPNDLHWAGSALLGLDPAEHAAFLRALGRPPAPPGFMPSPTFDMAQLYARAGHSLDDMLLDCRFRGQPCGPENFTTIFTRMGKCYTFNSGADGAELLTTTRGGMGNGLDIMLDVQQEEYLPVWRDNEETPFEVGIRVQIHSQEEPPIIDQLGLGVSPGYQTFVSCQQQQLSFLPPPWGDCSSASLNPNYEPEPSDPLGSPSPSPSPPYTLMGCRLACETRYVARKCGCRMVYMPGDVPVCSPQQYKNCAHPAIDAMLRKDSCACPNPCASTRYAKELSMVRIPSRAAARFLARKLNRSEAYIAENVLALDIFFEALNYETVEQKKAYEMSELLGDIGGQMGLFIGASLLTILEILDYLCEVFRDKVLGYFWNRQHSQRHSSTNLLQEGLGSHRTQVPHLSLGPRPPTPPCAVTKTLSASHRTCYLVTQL
Experimental: Oocytes surgically removed from adult Xenopus laevis were treated for 2 h at room temperature with type II collagenase (Gibco-BRL) in Barth's solution under constant agitation. Selected oocytes at stage IV-V were defolliculated manually before nuclear micro-injections (Bertrand et al., 1991) of 5 ng of hASlC3 in pcDNA3 vector. After 2-4 days of expression at 19^-C in Barth's solution containing 50Êg/ml gentamycin, currents were recorded in the two-electrode voltage clamp configuration using an OC-725B amplifier (Warner Instruments). Whole cell currents were acquired and digitized at 500 Hz on a Macintosh IIci computer with an A/D NB-MIO16XL interface (National Instruments) then recorded traces were post-filtered at 100 Hz in Axograph (Axon Instruments). Agonist, amiloride and wash solutions were prepared in a modified Ringer's solution containing 115 mM NaCl, 2.5 mM KCI, 1.8 mM CaCl2 in 5-20 mM HEPES (Sigma) buffer adjusted with NaOH or HCl at pH 2 to 8 and applied on oocytes by constant perfusion (10-12 ml/min) at room temperature. Mean values ± SEM corresponded to measurements from a minimum of 5 oocytes.

[2] = biological target: rat P2x2 (ATP-gated ion channel subunit) (rat) (UniProt P49653); assay: cell-based or functional assay
[3] = biological target: hASIC3 (human non-inactivating amiloride-sensitive proton-gated ion channel subunit) (human); assay: cell-based or functional assay

Sequence of rat P2x2 (ATP-gated ion channel subunit) (rat) (P49653 whole entry): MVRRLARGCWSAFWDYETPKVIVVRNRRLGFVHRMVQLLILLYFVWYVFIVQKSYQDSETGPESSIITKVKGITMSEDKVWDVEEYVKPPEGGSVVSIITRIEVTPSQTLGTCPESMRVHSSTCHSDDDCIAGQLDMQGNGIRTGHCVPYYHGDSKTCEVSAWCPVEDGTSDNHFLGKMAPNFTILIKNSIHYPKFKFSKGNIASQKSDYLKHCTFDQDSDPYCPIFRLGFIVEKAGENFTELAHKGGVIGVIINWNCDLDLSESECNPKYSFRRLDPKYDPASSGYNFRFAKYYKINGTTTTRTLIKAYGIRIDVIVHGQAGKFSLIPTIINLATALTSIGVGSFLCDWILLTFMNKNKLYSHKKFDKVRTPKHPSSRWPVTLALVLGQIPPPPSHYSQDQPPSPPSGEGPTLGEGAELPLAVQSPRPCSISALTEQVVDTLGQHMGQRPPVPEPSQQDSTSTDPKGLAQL

inward currents in Xenopus oocytes coinjected with hASIC3 and P2x2 (two-electrode voltage clamp), activating pH [2] [pH]	non-inactivating cation current induced by weak acid in Xenopus oocytes coinjected with hASIC3 clone and rat P2x2 clone [2] [pH]	non-inactivating cationic current induced by strong acid in Xenopus oocytes injected with the hASIC3 clone alone [3] [pH]	Compound	remaining activity at 100 µM ([1]; read-out: residual peak currents during amiloride application, fast component, expressed as percent of controls) [%]	remaining activity at 100 µM ([1]; read-out: residual peak currents during amiloride application, sustained component, expressed as percent of controls) [%]	inhibition at 100 µM ([1]; read-out: blockade of the fast current by amiloride) [%]	inhibition at 100 µM ([1]; read-out: blockade of the slow current by amiloride) [%]
–	–	–	N=C(N)NC(=O)c1nc(Cl)c(N)nc1N [amiloride]	37.2 ± 6.4	72 ± 3.8	62.8 ± 6.5	28.7 ± 4.6
6.5	6.5	4	hASIC3 (human non-inactivating amiloride-sensitive proton-gated ion channel subunit)	–	–	–	–
